We go through twelve compounds from US20100008874A1, “SUBSTITUTED PYRIMIDINES, PROCESS FOR THEIR PRODUCTION AND THEIR USE AS EFFECTIVE ABSORBENTS OF UV IRRADIATION” (YISSUM RESEARCH DEVELOPMENT COMPANY, priority 2006, published 2010).

Read-outs that look alike come from different tables or passages of the source. Marks after values point to notes of the source that are not given here.

As a reminder, the melting point is the temperature of the solid-liquid transition.

Data set [1] in a line: Autoxidation rate in air-saturated phosphate buffer, followed spectrophotometrically. The data set is classed as physicochemical. As to conditions: air saturated 0.05M phosphate buffer pH 7.0, 1 mM EDTA, 25° C., [Pyrimidine] = 2.4 × 10^−5 M. On the procedure:
The autoxidation rate was measured in air-saturated buffer phosphate solutions 0.05 M at pH 7 and 25° C. The solutions contained 1 mM EDTA to minimize catalysis of the oxidation by trace metallic cations. The rate of autoxidation was measured spectrophotometrically by following the decrease of the UV absorbance of the pyrimidines at their respective λ max (Table 1).
This is probably the reason why there was no transient appearance of an absorption maximum around 240-255 nm which is assumed to be due to the intermediacy of oxidized pyrimidine B (Scheme 1), and was found in the autoxidation of isouramil, divicine and related systems. The decrease in the absorbance of 8a-c, followed a reasonably pseudo first order reaction in the pyrimidine concentration (the dissolved oxygen concentration was at least 13 times higher). However, it was found (Winterbourn, C. C.; Cowden, W. B.; Sutton, H. Biochem. Pharmacol. 1989, 38, 611-618) that the reaction mechanism is complex and involves radical intermediates and chain reactions and that the dependency on the pyrimidine concentration is far from simple. Therefore, in accordance with the present invention a different approach was adapted that uses the measured initial reaction rates for checking the quantitative dependency of the oxidation rate on the electron releasing power of the substituent in the C2 position. Table 1 also contains the initial rates for the reactions of isouramil and divicine (8d and 8e) calculated from Winterbourn, C. C.; Cowden, W. B.; Sutton, H. Biochem. Pharmacol. 1989, 38, 611-618; (aerated 0.05M phosphate buffer, pH 7, 23° C., 50 nM DTPA and similar to our pyrimidine concentrations) using ΔH of 60.2 kJ/mole (Chevion et al.^5a).

Data set [2] can be described thus: UV absorption spectrum (spectral properties). The format is physicochemical. The note with it: footnote b: this work.
For data set [3], the system named is tumor necrosis factor (TNF). As to conditions: in-vitro and in-vivo; cited from earlier work.
In data set [4] the test system is murine erythroleukemic cells. As to conditions: cited from earlier work.
For data set [5] the following is noted: footnote d: reference; cited from earlier work.
The conditions of data set [6]: calculated from literature (aerated 0.05M phosphate buffer, pH 7, 23° C., 50 nM DTPA) using ΔH of 60.2 kJ/mole; cited from earlier work.

In turn, `Cc1ncc(OC2CCCCO2)c(=O)[nH]1` (centres unmarked) [5a, 2-Methyl-5-(tetrahydro-2H-pyran-2-yloxy)pyrimidin-4(3H)-one] showed a melting point of 149 to 151 °C.
Compound `O=c1[nH]c(S)ncc1OC1CCCCO1` (centres unmarked) [5c, 2-Mercapto-5-(tetrahydro-pyran-2-yloxy)-3H-pyrimidin-4-one] returned a melting point greater than 300 °C.
Same read-out and setting: the figure for `Cc1ncc(O)c(=O)[nH]1` [6a, 5-Hydroxy-2-methylpyrimidin-4(3H)-one] is greater than 300 °C; for `O=c1[nH]c(S)ncc1O` [6c, 5-Hydroxy-2-mercapto-3H-pyrimidin-4-one] it is greater than 300 °C.
Still for that read-out and setting: the figure for `Cc1nc(N=Nc2ccccc2)c(O)c(=O)[nH]1` [7a, 5-Hydroxy-2-methyl-6-phenylazo-3H-pyrimidin-4-one] is 243 to 245 °C; for `O=c1[nH]cnc(N=Nc2ccccc2)c1O` [7b, 5-Hydroxy-6-phenylazo-3H-pyrimidine-4-one] it is 244 to 245 °C; for `CSc1nc(N=Nc2ccccc2)c(O)c(=O)[nH]1` [7c, 5-Hydroxy-2-methylsulfanyl-6-phenylazo-3H-pyrimidin-4-one] it is 213 to 215 °C.
The compound `Cc1nc(N)c(O)c(=O)[nH]1` [CH3, 6-Amino-5-hydroxy-2-methylpyrimidin-4(3H)-one] registered a melting point greater than 300 °C. Further, the “Initial rate (autoxidation)” value in data set [1] is 0.0015^c μM/sec. In data set [2], the “ε at λmax” value is 16200 and the λmax is given as 275 nm.
`Nc1nc[nH]c(=O)c1O` [H, 6-Amino-5-hydroxypyrimidin-4(3H)-one] returned a melting point greater than 300 °C. The “Initial rate (autoxidation)” value in data set [1] is 0.00087^c μM/sec. In addition, in data set [2], the “ε at λmax” value is 13000 and the λmax came to 274 nm.
As to `Nc1nc(N)c(O)c(O)n1` [NH2, 2,6-diamino-5-hydroxypyrimidin-4-one], in data set [3], the “effect on lipopolysaccharide-induced release of TNF” value is recorded as “enhances”. Besides, the “cytotoxicity in combination with carboplatin” value in data set [4] is reported as “synergistic cytotoxicity”. Besides, in data set [5], the “ε at λmax” value was 9800 and the λmax was 285 nm. For the same compound, in data set [6], the “Initial rate (autoxidation)” value is on record as 0.061^e μM/sec.
`Nc1nc(O)[nH]c(=O)c1O` [OH, 6-amino-2,5-dihydroxypyrimidin-4-one]: in data set [5], the “ε at λmax” value was 14100 and the λmax is 280 nm. The “Initial rate (autoxidation)” value in data set [6] is on record as 0.067^e μM/sec.
With `CSc1nc(N)c(O)c(=O)[nH]1` [SCH3, 6-Amino-5-hydroxy-2-(methylthio)pyrimidin-4-(3H)-one], the “Initial rate (autoxidation)” value in data set [1] is recorded as 0.0097^c μM/sec. Also, in data set [2], the “ε at λmax” value is 10800 and the λmax is given as 286 nm.
